Measurements: patent US6878751B1, “Administration of resveratrol to treat inflammatory respiratory disorders” (Imperial College of Science Technology and Medicine, priority 2000, dated 2005)

What was measured:
[1] = tested on: NF-κB dependent transcription; experiment: NF-κB luciferase reporter in stably transfected A549 cells; type: cell-based, human
Procedure: The expression of inflammatory genes was then evaluated in cells transformed with luciferase reporter genes containing sites for transcription factors (Tf, Tfs). The A549 cells were stably transfected by routine methods with luciferase reporters containing the transcription factors NF-κB, TRE (AP-1, TPA responsive element) and CRE (cAMP responsive element). Luciferase activity of cell lysates resuspended in […] cell lysis buffer mixed (40 mml resuspended lysate: 40 mml assay reagent) was measured using the Luciferase Assay System (Promega), with emitted light measured by a Turner DesignsTD-20/20 luminometer (Steptech Instruments Ltd., Stevenage, U.K.)

Patients with asthma = experiment: Oral resveratrol clinical evaluation in asthma (Example 3); type: in vivo, human; details: oral, 200, 2000 or 3000 mg/day, about six months
Procedure: Resveratrol is evaluated clinically for efficacy in treating asthma. The methods of the following references are generally used in the evaluation of asthmatic disease: Wohl et al. (2000) N. Engl. J. Med. 343(15):1113-4; Agertoft et al. (2000) N. Engl. J. Med. 343(15):1064-9. Patients with asthma are treated once or more per day with gelatin capsules containing resveratrol. Patients are divided randomly and blindly into four approximately equal groups that receive either 0 (placebo), 200, 2000, or 3000 mg/day resveratrol for about six months in oral doses of 0, 50, 500, or 750 mg administered 4 times daily for about six months. Patients are medically monitored for clinical symptoms of asthma throughout the study, including frequency and severity of acute asthma attacks. […] In addition exhaled nitric oxide (NO) and carbon monoxide (CO) levels may be measured at more frequent intervals, such as every other week. Forced expiratory volume (FEV) and forced inspiratory volume (FIV) are also evaluated to measure airway patency as a direct measure of clinical morbidity and to determine correlation the histopathologic and other indicators of clinical disease, such as exhaled NO Immunhistopathologic examination of lung tissue biopsy samples taken at the same intervals as the blood samples are also examined for histopathologic evidence of extent and histology of inflammation.

[2] = tested on: IL-8 release, 16HBE-16o^− cells; experiment: IL-8 release (ELISA) in IL-1β stimulated 16HBE-16o− cells; type: cell-based; details: Homo sapiens, 1 ng/ml IL-1β, read-out: EC50 for inhibition of the release of IL-8
Procedure: The human airway epithelial cell line A549 may be employed to study resveratrol inhibition of the release of IL-8 (interleukin 8) and GM-CSF (granulocyte macrophage-colony stimulating factor) by a 1 ng/ml stimulation with IL-1β (interleukin 1β). A549 cells, BEAS-2B cells and 16HBE-16o^− cells were stimulated with 1 ng/ml levels of IL-1β in the presence of resveratrol.
Cells, including the A549 cells, were cultured in Dulbecco's modified Eagle's medium (DMEM) 10% (v/v) fetal calf serum (FCS), 100 μg/ml penicillin and 100 μg/ml streptomycin. IL-8 release was measured by commercially available ELISA kit (R&D Systems).

COPD patients = experiment: Oral resveratrol clinical evaluation in COPD (Example 8); type: in vivo, human; details: oral, 200, 2000 or 3000 mg/day, about six months
Procedure: Resveratrol is evaluated clinically for efficacy in treating COPD. The study is generally patterned after the asthma studies with modifications appropriate to the clinical and histopathologic evaluation of COPD disease, and the references listed in the preceding examples may be applied as appropriate. Smokers are treated once or more per day with gelatin capsules containing resveratrol. The different populations of COPD patients are subdivided into subpopulations: emphysema patients, bronchitis patients and other COPD. Patients are divided randomly and blindly into four approximately equal groups that receive either 0 (placebo), 200, 2000, or 3000 mg/day resveratrol for about six months in oral doses of 0, 50, 500, or 750 mg administered 4 times daily for about six months.
Patients are medically monitored for clinical symptoms of COPD throughout the study, including frequency and severity of hypoxemic and respiratiry acidotic exacerbations. In addition, induced sputum samples are obtained from the patients at days 0, 30, 90, and 180 and neutrophil counts are performed and the samples are assayed for IL-8 and myeloperoxidase by routine methods. Forced expiratory volume (FEV) and forced inspiratory volume (FIV) are also evaluated to measure airway patency as a direct measure of clinical morbidity and to determine correlation the histopathologic and other indicators of clinical disease. […]

Oc1ccc(/C=C/c2cc(O)cc(O)c2)cc1 [Resveratrol, 3,5,4′-trihydroxystilbene]
extent of inhibition of NF-κB dependent transcription [1]: completely | EC50 ([1]; Homo sapiens, read-out: EC50 for inhibition of NF-κB dependent transcription): 21 ± 7 µM | efficacy in treating asthma (Patients with asthma): effective for treating asthma | EC50 [2]: 8.9 ± 3.5 µM | efficacy in treating COPD (COPD patients): effective for treating COPD
